Where two headings read alike, the source gives them in different places.
Columns and labels:
Type in all cases: biochemical
[1] = tested on: bovine brain glycolipid transfer protein (GTP) cDNA (660 bp); experiment: PCR amplification of GTP cDNA with diol additives, standard cycling; details: for amplification of GTP over annealing temperature gradients (in words): 95° C. denaturing temperature
Protocol: (§1) Amplification reactions were carried out under the following general conditions. Those skilled in the art will appreciate, however, that to the extent that the conditions (set forth in this application) required for specific experiments described in this example were inconsistent with the following general conditions, limited exceptions to the following general conditions were made The general conditions were as follows: 10 Mm Tris-HCl (Ph 8.8), 50 Mm KCl, 1.5 Mm MgCl2, 0.01% (w/v) gelatin, 0.2 Um primers, 0.06 ng/ul template, 0.2 Mm each Dntp, 0.04 U/ul Taq polymerase. The templates used were bovine brain N-WASP cDNA (1518 bp), a 996 bp segment of human myeloid leukocyte c-jun cDNA, a 511 bp segment of human prostate-specific membrane antigen (PSM) cDNA, and bovine brain glycolipid transfer protein (GTP) cDNA (660 bp). cDNA synthesis was carried out using the FIRST-STRAND® RT-PCR kit from Stratagene on the respective mRNAs purchased from Clontech. All amplification reactions for gene were carried out using a single master batch of cDNA. Taq polymerase and dNTPs were obtained from Stratagene. Primers were obtained from Genosys. Primer melting temperatures (Tms) were calculated using the Genosys oligo calculator program. The sequences of the primers were as follows.
(§2) Polymerase chain reactions for the N-WASP gene were conducted on a ROBOCYCLER® Gradient 40 thermal cycler from Stratagene using 100 ul solutions in 600 ul thin-walled tubes. For expediency, amplification of c-jun, PSM and GTP was carried out in a ROBOCYCLER® Gradient 96 thermal cycler from Stratagene using 50 ul solutions in 200 ul thin-walled tubes. Prior to Taq polymerase addition, a hotstart protocol was carried out that consisted of an initial cycle of 95° C. for 5 minutes (11) to ensure complete first-strand separation, followed by a cycle of 54° C. for 5 minutes. Amplifications were run for 30 cycles. […] Extension was done at 72° C. for periods depending on target length: 2 minutes for N-WASP, 1.5 minutes for c-jun and GTP, and 1 minute for PSM. Annealings were carried out either at fixed concentrations of additives using temperature gradients of 38-56° C. for N-WASP and 44-58° C. for the other targets, or at varying concentrations of additives using fixed temperatures of 41° C. for N-WASP, 50° C. for c-jun and PSM, and 54° C. for GTP.
(§3) Amplification products were analyzed by agarose gel electrophoresis on 0.8% agarose gels in which 20 ul reaction products were loaded with 4 ul loading buffer. Gels were stained with ethidium bromide, visualized on a UV transilluminator (Fisher), and documented by photography. Densitometric quantitation of amplification products was carried out using IMAGE SCANNER® and IMAGE MASTER® software from Amersham Pharmacia. Background correction was done using the software's rolling disc method.
Investigations into the PCR enhancing capabilities of diol cosolvents were carried out using GTP as the primary template. […] The standard protocol for annealing temperature and concentration gradient screening was again followed. […] These cosolvents were thus omitted from further studies. The optimal annealing temperatures for the remaining compounds were: ethylene glycol, 1,2-propanediol, 1,3-propanediol and cis-1,2-cyclopentanediol—58° C.; 1,2-butanediol—54° C.; 1,3-butanediol and 1,4-butanediol—[…]; 2,4-pentanediol, 1,5-pentanediol, 1,6-hexanediol and MPD—56° C.

[2] = tested on: 511 bp segment of human prostate-specific membrane antigen (PSM) cDNA; experiment: PCR amplification of PSM cDNA with diol additives, standard cycling; details: for Specificity / Effective range / Potency: PSM; for Specificity: best specificity (densitometric volume of target as percent of total volume) over the effective range; for Effective range: concentration interval over which densitometric volume of target is at least 50% of maximum; for Potency: normalized maximum densitometric volume of target band: 1,3-Butanediol = 1
Protocol: as §1, §2, §3
(§4) With PSM, 1,2-propanediol, 1,2-butanediol, 1,3-butanediol, 1,4-butanediol and glycerol were tested; with c-jun, ethylene glycol and 1,3-propanediol were also tested in addition to these compounds. […] The following additive concentrations were tested using these annealing temperatures: 1,2-propanediol—0.5, 0.8, 1.1, 1.4, 1.7 and 2.0M; 1,2-butanediol—0.1, 0.3, 0.5, 0.6, 0.7 and 0.8M; 1,3-butanediol—0.1, 0.3, 0.5, 0.6, 0.9, 1.1, 1.2M; 1,4-butanediol—0.1 to 1.1M in 0.2M intervals; 1,5-pentanediol—0.1-0.6M in 0.1M intervals; glycerol—0.5 to 1.9M in 0.2M intervals, and 2.2M.

[3] = tested on: 996 bp segment of human myeloid leukocyte c-jun cDNA; experiment: PCR amplification of c-jun cDNA with diol additives, standard cycling
Protocol: as §1, §2, §3, §4

[4] = tested on: 1026 by segment of the Thy-1 gene from rat genomic DNA
[5] = GTP, 95° C. denaturing, 72° C. extension, normalized maximum densitometric volume of target band: 1,5-Pentanediol = 1
[6] = GTP, concentration interval over which densitometric volume of target band is at least 50% of maximum volume
[7] = c-jun, concentration interval over which densitometric volume of target band is at least 50% of maximum volume
[8] = c-jun, normalized maximum densitometric volume of target band: 1,5-Pentanediol = 1

O[C@@H]1CCC[C@H]1O (relative stereo) [trans-1,2-Cyclopentanediol]
amplification of GTP over annealing temperature gradients (in words) ([1]; GTP): inhibitory at all concentrations

CCCCC(O)CO (stereo not drawn) [1,2-Hexanediol]
amplification of GTP over annealing temperature gradients (in words) ([1]; GTP): detectable amplification only in very narrow concentration ranges

CCCC(O)CO (stereo not drawn) [1,2-Pentanediol]
amplification of GTP over annealing temperature gradients (in words) ([1]; GTP): detectable amplification only in very narrow concentration ranges

CC(O)CO (stereo not drawn) [1,2-Propanediol]
Potency [1, 5]: 0.64 | Effective range [1, 6]: 0.52 to 1.79 M | Specificity [2]: 89% | Effective range [2]: 0.65 to 1.40 M | Potency [2]: 0.75 | Effective range [3, 7]: 0.43 to 1.87 M | Potency [3, 8]: 0.60

CC(O)CCO (stereo not drawn) [1,3-Butanediol]
Potency [1, 5]: 0.85 | Effective range [1, 6]: 0.29 to 0.96 M | Specificity [2]: 94% | Effective range [2]: 0.55 to 1.03 M | Potency [2]: 1.00 | PSM Potency ([2]; comparative standard 95/50/72° C., 0.8 M, best result under conventional conditions, normalization reference): 1.00 | PSM Specificity ([2]; comparative standard 95/50/72° C., 0.8 M, densitometric volume of target band as percent of total volume): 94% | Effective range [3, 7]: 0.40 to 1.12 M | Potency [3, 8]: 0.77 | amplification yield of Thy-1 genomic DNA (in words) [4]: particularly dramatic improvement

OCCCO [1,3-Propanediol]
Potency [1, 5]: 0.39 | Effective range [1, 6]: 0.31 to 1.18 M | Effective range [3, 7]: 0.59 to 0.96 M | Potency [3, 8]: 0.25

OCCCCO [1,4-Butanediol]
Effective range [1]: 0.16 to 0.77 M | Potency [1]: 0.87 | Specificity [2]: 92% | Effective range [2]: 0.38 to 0.80 M | Potency [2]: 0.65 | Effective range [3]: 0.35 to 0.91 M | Potency [3]: 0.82

CC(O)CC(C)O (stereo not drawn) [2,4-Pentanediol]
Potency [1, 5]: 0.61 | Effective range [1, 6]: 0.25 to 0.70 M

CC(O)CC(C)(C)O (stereo not drawn) [2-Methyl-2,4-Pentanediol]
Potency [1, 5]: 0.45 | Effective range [1, 6]: 0.12 to 0.33 M

OCCO [Ethylene glycol]
Effective range [1]: 1.55 to 3.55 M | Potency [1]: 0.62 | Effective range [3]: 0.71 to 3.10 M | Potency [3]: 0.58 | amplification yield of Thy-1 genomic DNA (in words) [4]: improve amplification yield

O[C@@H]1CCC[C@@H]1O [cis-1,2-Cyclopentanediol]
Potency [1, 5]: 0.91 | Effective range [1, 6]: 0.13 to 0.35 M

— US7772383B2, “Chemical PCR: Compositions for enhancing polynucleotide amplification reactions” (The Trustees of Princeton University, priority 2002, dated 2010)
